This experiment has as its system human bronchial epithelial cells, CFTR corrector, plate reader. Kind of experiment: rescue of ΔF508 CFTR function, airway epithelium – human bronchial epithelial cells, plate reader, cherry-pick, two tests, dose response (AID 743267).
Where [1] appears, read: measured here: test 2 replicate run.
The mark [2] stands for this setting: measured here: test 1 replicate run.

For orientation: AC50 means the midpoint of the concentration-response curve, whichever way the signal moves. Read a low AC50 as activity at low concentration. Under setting [1], `Cc1ccc2[nH]c(C(=O)N/N=C/c3ccccc3O)c(C)c2c1` came in with an AC50 of 1.31 µM.
The same measure, in the same setting: then `COc1ccc(NC(=O)c2nc(C)c(C3(C)CC(c4ccccc4)=NO3)s2)cc1` (stereo not given), with 3.49 µM.
`Cc1cc(NCc2ccccn2)n2nc(C)c(-c3ccccc3)c2n1`: the concentration at half-maximal activity (AC50) under setting [1] was determined as 4.77 µM.
Still for that read-out and setting: then `NS(=O)(=O)c1ccc(NNC(=O)c2ccc(Br)o2)c([N+](=O)[O-])c1`, with 8.91 µM; and `Cc1cccc(OCCNC(=O)c2ccc(Cl)c(S(=O)(=O)NCc3cccnc3)c2)c1`, with 1.97 µM; and `CC(C)(C)c1cc(C(=O)NN)n(Cc2ccc(Cl)cc2Cl)n1`, with more than 50 µM.
`Nc1nn(-c2ccccc2)c(N)c1N=Nc1cccc(F)c1` showed an AC50 under setting [1] of 2.04 µM.
`COc1ccc(CNC(=O)c2cc3c(c(-c4cccc(-c5ccc(C#N)cc5)c4)n2)[C@@H](CCO)N([S@](=O)C(C)(C)C)C3)cc1` gave an AC50 under setting [2] of more than 50 µM.
`O=C1C=C(NCCc2cc(Br)c(O)c(Br)c2)C(=O)c2ncccc21`: the AC50 under setting [1] amounted to 3.33 µM.
For the compound `COc1ccc(NC(=O)c2nc(C)c(C3(C)CC(c4cccnc4)=NO3)s2)cc1` (stereo not given), under setting [1], the AC50 worked out at 2.75 µM.
Turning to `O=C1c2cccc3c(O)ccc(c23)C(=O)N1Cc1ccco1`, the half-maximal activity concentration (AC50) under setting [1] was 13.3 µM.
On to `NS(=O)(=O)c1ccc(CCNc2nn3c(-c4cccc(OC(F)(F)F)c4)cnc3s2)cc1`, for which the concentration at half-maximal activity (AC50) under setting [1] was found to be 1.99 µM.
On the same count and under the same terms, next, `O=C1c2cccc3c([N+](=O)[O-])ccc(c23)C(=O)N1Cc1cccnc1`: 10.2 µM.
The compound `Cc1ccc(-c2ccc3c(c2)O[C@H](CN(C)C(=O)Nc2ccc(C(F)(F)F)cc2)[C@@H](C)CN([C@@H](C)CO)S3(=O)=O)cc1` gave an AC50 under setting [2] of more than 50 µM.
For the compound `O=C(C1CC1)N1CC(=O)N2[C@H](CO)[C@@H](c3ccc(-c4ccccc4F)cc3)[C@@H]2C1`, the AC50 under setting [2] worked out at 8.99 µM.
In the case of `O=c1[nH]c(CN2CCN(c3ccc(O)cc3)CC2)nc2scc(-c3ccc(Cl)cc3)c12`, the half-maximal activity concentration (AC50) under setting [1] is 6.45 µM.
`COc1cc(OC)cc(C(=O)c2c(C)c(C#N)c3ccccn23)c1` had a concentration at half-maximal activity (AC50) under setting [1] of 1.8 µM.
Still for that read-out and setting: next, `N#C/C(=C/c1ccc(N2CCCCC2)o1)C(=O)Nc1ccc2ccccc2c1`: 6.64 µM; `COc1ccccc1N=C1SC(C(=O)Nc2cccc(Cl)c2Cl)C(N)=C1C(N)=O` (stereo not given): 6.08 µM.
`COc1ccc(-c2ccc3c(c2)[C@H]2[C@H](CCN2S(=O)(=O)c2ccc(OC)cc2)[C@@H](CO)N3)cc1` registered an AC50 under setting [2] of 7.37 µM.
Under setting [1], `CCCCN1C(=O)/C(=C/C=C2\Oc3ccccc3N2CC)SC1=S` yielded an AC50 of 9.56 µM.
Consider `COc1cc(/C=C2\SC(=S)N(NC(=O)c3ccncc3)C2=O)ccc1O`, for which, under setting [1], the half-maximal activity concentration (AC50) amounted to 13.2 µM.
Same read-out and setting: then `COc1ccc(C2CN=NC23CCc2ccccc2C3=O)cc1` (stereo not given), with 38.9 µM.
On the same count and under the same terms, then `COc1cccc2c1C(=O)c1c(O)c3c(c(O)c1C2=O)C[C@](O)(C(C)=O)C[C@H]3O[C@@H]1C[C@@H](N)[C@@H](O)[C@@H](C)O1`, with 7.44 µM.
On the same count and under the same terms, then `CCOc1ccc(-c2cc(C(=O)N/N=C/c3ccc(O)cc3)c3ccccc3n2)cc1`, with 16 µM; and `COc1ccccc1C1CC(=O)Nc2cc3c(cc21)OCCO3` (stereo not given), with 1.96 µM; and `Cc1ccc2nc(-c3ccc4c(c3)OCCO4)cn2c1`, with 2.33 µM.
In turn, `Cc1nc(NCc2cccnc2)c2c3c(sc2n1)CCCC3` displayed a concentration at half-maximal activity (AC50) under setting [1] of 7.38 µM.
The compound `COc1ccc(C2=NOC(C(=O)NCc3ccccc3)C2)cc1` (stereo not given) returned an AC50 under setting [1] of 2.42 µM.
Turning to `O=C(N/N=C/c1cc(Br)cc(Cl)c1O)c1ccc2c(c1)OCO2`, under setting [1], the AC50 was 9.98 µM.
Under setting [1], `CC(=Nc1ccccc1O)c1sc2ccccc2c1O` had an AC50 of 11.8 µM.
For the compound `CCc1ccc(-c2nc(C(N)=O)c3[nH]c(=O)n(-c4ccccc4OC)c3n2)cc1`, the AC50 under setting [1] came out at 1.33 µM.
For `CCOC1=C/C(=C/c2c(N)n3nc(S(=O)(=O)CC)sc3nc2=O)C=CC1=O`, the concentration at half-maximal activity (AC50) under setting [1] was 24.9 µM.
The compound `Cc1cc(C(=O)N/N=C/c2ccc3c(c2)OCO3)c2ccccc2n1` displayed a half-maximal activity concentration (AC50) under setting [1] of 3.76 µM.
On the same count and under the same terms, then `O=C1NC(=O)C(=Cc2ccc(N3CCOCC3)o2)C(=O)N1`, with more than 50 µM; and `CCN(CC)C(=O)c1oc2ccc(S(=O)(=O)N3CC(C)CC(C)C3)cc2c1C` (stereo not given), with 10.5 µM; and `CCOc1ccc(NC(=O)CN(c2ccc([N+](=O)[O-])cc2)S(=O)(=O)c2ccccc2)cc1`, with 18.1 µM.
The compound `O=C(CSC1=NCCN1)Nc1cccc([N+](=O)[O-])c1` had a concentration at half-maximal activity (AC50) under setting [1] of 14.1 µM.
For `N=C1/C(=C/c2cccn2CCOc2ccccc2)C(=O)N=C2SC=C(c3ccccc3)N12`, the AC50 under setting [1] is 10.8 µM.
`CN1c2ccc(-c3ccc(F)cc3)cc2[C@H]2[C@H](CCN2S(=O)(=O)c2cccc(F)c2)[C@@H]1CO` returned an AC50 under setting [2] of 7.66 µM.
`O=[N+]([O-])c1ccc(/C=C/C2=NN(c3ccccc3)C(c3ccco3)C2)o1` (stereo not given): the AC50 under setting [1] was 18.1 µM.
Compound `C[C@@H]1CN([C@H](C)CO)S(=O)(=O)c2ccc(-c3ccccc3)cc2O[C@H]1CN(C)Cc1ccccn1` yielded a concentration at half-maximal activity (AC50) under setting [2] of 16 µM.
Turning to `Cc1cc(Br)cc(/C=N/NC(=O)c2ccc3c(c2)OCO3)c1O`, under setting [1], the AC50 was 6.69 µM.
Turning to `COc1ccc(C2C3=C(COC3=O)Oc3cc4c(cc32)OCO4)cc1OC` (stereo not given), under setting [1], the half-maximal activity concentration (AC50) is 3.72 µM.
For the compound `Cc1c(C(=O)N/N=C/c2c(O)ccc3ccccc23)nnn1-c1nonc1N`, under setting [1], the AC50 came to 0.462 µM.

The values are drawn from PubChem BioAssay AID743267 (Broad Institute, 2014).
